Results from patent US9676715B2, “Bis-indolic derivatives, a process for preparing the same and their uses as a drug” (UNIVERSITE JOSEPH FOURIER, priority 2011, dated 2017).
In brackets after ≈: the same amount, converted by molar mass.

Experiments:
S. aureus CIP 103428 = assay: MIC, microdilution method (9.1); format: cell-based, Staphylococcus aureus; conditions: Staphylococcus aureus, CIP103428, read after 18 h, read-out: MIC
Procedure: (§1) The microdilution method recommended by the Clinical and Laboratory Standard Institute [M07-A8, Vol. 29, No. 2] was used. The activity of indolic compounds was tested against 29 bacterial strains belonging to 17 different species and 12 different genera (Staphylococcus, Streptococcus, Enterococcus, Listeria, Bacillus, Haemophilus, Escherichia, Klebsiella, Enterobacter, Serratia, Pseudomonas, and Acinetobacter). Bacterial inocula were prepared in Mueller Hinton broth (MH2, bioMérieux, Marcy L'Etoile, France), supplemented with 10% sheep blood for fastidious species (i.e., Streptococcus pneumoniae and Haemophilus influenzae). They were dispensed in 96 well microtiter plates (5×10^5 CFU/ml of final inoculum). Indolic compounds were added to the wells as to obtain two-fold serial concentrations (0.50-128 mg/L of final concentrations). Plates were incubated at 37° C. in ambient air, or at 37° C. in 5% CO2 enriched atmosphere for fastidious species. […] Drug-free cultures served as growth controls. Cultures receiving gentamicin, ciprofloxacin or cefotaxime served as positive controls.

[1] = test system: S. aureus CIP 65.25 (MRSA); assay: MIC, microdilution method (9.1); format: cell-based, Staphylococcus aureus; conditions: Staphylococcus aureus, read after 18 h, read-out: MIC
Procedure: as §1

[2] = test system: S. aureus ATCC 33592 (MRSA); assay: MIC, microdilution method (9.1); format: cell-based, Staphylococcus aureus; conditions: Staphylococcus aureus, read after 18 h, read-out: MIC
Procedure: as §1

S. aureus ATCC 6538 = assay: MIC, microdilution method (9.1); format: cell-based, Staphylococcus aureus; conditions: Staphylococcus aureus, ATCC6538, read after 18 h, read-out: MIC
Procedure: as §1

[3] = test system: S. aureus ATCC 106414 (VISA); assay: MIC, microdilution method (9.1); format: cell-based, Staphylococcus aureus; conditions: Staphylococcus aureus, read after 18 h, read-out: MIC
Procedure: as §1

S. aureus ATCC 9144 = assay: MIC, microdilution method (9.1); format: cell-based, Staphylococcus aureus; conditions: Staphylococcus aureus, ATCC9144, read after 18 h, read-out: MIC
Procedure: as §1

S. aureus ATCC 29213 = assay: MIC, microdilution method (9.1); format: cell-based, Staphylococcus aureus; conditions: Staphylococcus aureus, ATCC29213, read after 18 h, read-out: MIC
Procedure: as §1

S. aureus CIP 65.6 = assay: MIC, microdilution method (9.1); format: cell-based, Staphylococcus aureus; conditions: Staphylococcus aureus, CIP65, read after 18 h, read-out: MIC
Procedure: as §1

S. aureus ATCC 25923 = assay: MIC, microdilution method (9.1); format: cell-based, Staphylococcus aureus; conditions: Staphylococcus aureus, ATCC25923, read after 18 h, read-out: MIC
Procedure: as §1

[4] = test system: Listeria innocua CIP 80.11; assay: MIC, microdilution method (9.1); format: cell-based; conditions: CIP80, 18 h, read-out: MIC
Procedure: as §1

S. pneumoniae ATCC 49619 = assay: MIC, microdilution method (9.1); format: cell-based; conditions: Streptococcus pneumoniae, ATCC49619, 10% sheep blood, 5% CO2, 18 h
Procedure: as §1

[5] = test system: Escherichia coli ATCC 25922; assay: MIC, microdilution method (9.1); format: cell-based; conditions: ATCC25922, 18 h
Procedure: as §1

[6] = test system: Enterobacter cloacae ATCC13047; assay: MIC, microdilution method (9.1); format: cell-based; conditions: 18 h
Procedure: as §1

[7] = test system: Serratia marcescens CIP 103551; assay: MIC, microdilution method (9.1); format: cell-based; conditions: CIP103551, 18 h
Procedure: as §1

[8] = test system: Haemophilus influenzae ATCC 49766; assay: MIC, microdilution method (9.1); format: cell-based; conditions: ATCC49766; Haemophilus influenzae ATCC 49766; 10% sheep blood, 5% CO2; 18 h; read-out: MIC
Procedure: as §1

[9] = test system: Klebsiella pneumoniae API ATCC 35657; assay: MIC, microdilution method (9.1); format: cell-based; conditions: ATCC35657, 18 h, read-out: MIC
Procedure: as §1

[10] = test system: Pseudomonas aeruginosa CIP 5933; assay: MIC, microdilution method (9.1); format: cell-based; conditions: CIP5933, 18 h, read-out: MIC
Procedure: as §1

[11] = test system: Bacillus subtilis CIP 5262; assay: MIC, microdilution method (9.1); format: cell-based; conditions: CIP5262, 18 h, read-out: MIC
Procedure: as §1

[12] = test system: Acinetobacter baumanii ATCC 19606; assay: MIC, microdilution method (9.1); format: cell-based; conditions: Acinetobacter baumannii, ATCC19606, 18 h, read-out: MIC
Procedure: as §1

E. faecalis ATCC 29212 = assay: MIC, microdilution method (9.1); format: cell-based, Enterococcus faecalis; conditions: Enterococcus faecalis, ATCC29212, 18 h, read-out: MIC
Procedure: as §1

S. epidermidis CIP 81.55 = assay: MIC, microdilution method (9.1); format: cell-based, Staphylococcus epidermidis; conditions: Staphylococcus epidermidis, CIP81, read after 18 h, read-out: MIC
Procedure: as §1

[13] = test system: S. epidermidis CIP 103627; assay: MIC, microdilution method (9.1); format: cell-based, Staphylococcus epidermidis; conditions: Staphylococcus epidermidis, CIP103627, read after 18 h, read-out: MIC
Procedure: as §1

[14] = test system: S. epidermidis ATCC 12228; assay: MIC, microdilution method (9.1); format: cell-based, Staphylococcus epidermidis; conditions: Staphylococcus epidermidis, ATCC12228, read after 18 h, read-out: MIC
Procedure: as §1

[15] = test system: S. pyogenes (group A) CIP 104226; assay: MIC, microdilution method (9.1); format: cell-based, Streptococcus pyogenes; conditions: Streptococcus pyogenes, CIP104226, 18 h, read-out: MIC
Procedure: as §1

S. mitis CIP 103335 = assay: MIC, microdilution method (9.1); format: cell-based, Streptococcus mitis; conditions: Streptococcus mitis, CIP103335, 18 h, read-out: MIC
Procedure: as §1

S. pneumoniae ATCC 6303 = assay: MIC, microdilution method (9.1); format: cell-based, Streptococcus pneumoniae; conditions: Streptococcus pneumoniae, ATCC6303, 10% sheep blood, 5% CO2, 18 h, read-out: MIC
Procedure: as §1

[16] = test system: S. agalactiae (group B) ATCC 12400; assay: MIC, microdilution method (9.1); format: cell-based, Streptococcus agalactiae; conditions: Streptococcus agalactiae, ATCC12400, 18 h, read-out: MIC
Procedure: as §1

E. faecium CIP 54.32 = assay: MIC, microdilution method (9.1); format: cell-based, Enterococcus faecium; conditions: Enterococcus faecium, CIP54, 18 h, read-out: MIC
Procedure: as §1

S. aureus SA-1199B = assay: MIC, microdilution method (9.1); format: cell-based, Staphylococcus aureus; conditions: Staphylococcus aureus, SA1199B, 18 h
Procedure: as §1

[17] = test system: KB (human mouth carcinoma); assay: In vitro cytotoxicity; format: cell-based; conditions: read-out: % of cellular growth inhibition; for inhibition at 10 µM: 10^−5 M; for inhibition at 1 µM: 10^−6 M
Procedure: (§2) In vitro cytotoxicity was assayed on three cell lines—KB (human mouth carcinoma), MCR5 (human lung fibroblast) and HCT116 (human colon tumor). Results are presented in table IV as % of cellular growth inhibition in presence of 10^−5 M and 10^−6 M of the tested bis-indolic derivatives.

[18] = test system: MRC5 (human lung fibroblast); assay: In vitro cytotoxicity; format: cell-based; conditions: read-out: % of cellular growth inhibition; for inhibition at 10 µM: 10^−5 M; for inhibition at 1 µM: 10^−6 M
Procedure: as §2

[19] = test system: HCT116 (human colon tumor); assay: In vitro cytotoxicity; format: cell-based; conditions: read-out: % of cellular growth inhibition; for inhibition at 10 µM: HCT-116, 10^−5 M; for inhibition at 1 µM: HCT-116, 10^−6 M
Procedure: as §2

| SMILES | MIC (S. aureus CIP 103428) [µg/mL] | MIC [1] [µg/mL] | MIC [2] [µg/mL] | MIC (S. aureus ATCC 6538) [µg/mL] | MIC [3] [µg/mL] | MIC (S. aureus ATCC 9144) [µg/mL] | MIC (S. aureus ATCC 29213) [µg/mL] | MIC (S. aureus CIP 65.6) [µg/mL] | MIC (S. aureus ATCC 25923) [µg/mL] | MIC [4] [µg/mL] | MIC (S. pneumoniae ATCC 49619) [µg/mL] | MIC [5] [µg/mL] | MIC [6] [µg/mL] | MIC [7] [µg/mL] | MIC [8] [µg/mL] | MIC [9] [µg/mL] | MIC [10] [µg/mL] | MIC [11] [µg/mL] | MIC [12] [µg/mL] | MIC (E. faecalis ATCC 29212) [µg/mL] | also measured |
| --- | --- | --- | --- | --- | --- | --- | --- | --- | --- | --- | --- | --- | --- | --- | --- | --- | --- | --- | --- | --- | --- |
| O=C(NC(C(=O)NCCCCO)c1c[nH]c2ccc(Br)cc12)c1c[nH]c2ccc(Br)cc12 (centres unmarked) [Compound 15, 5-Bromo-N-(1-(5-bromo-1H-indol-3-yl)-2-((4-hydroxybutyl)amino)-2-oxoethyl)-1H-indole-3-carboxamide] | 16 (≈ 28.5 µM) | 32 (≈ 56.9 µM) | 32 (≈ 56.9 µM) | 16 (≈ 28.5 µM) | 32 (≈ 56.9 µM) | 32 (≈ 56.9 µM) | 16 (≈ 28.5 µM) | 32 (≈ 56.9 µM) | 32 (≈ 56.9 µM) | > 128 | 128 (≈ 228 µM) | > 32 | > 32 | > 32 | > 128 | > 32 | > 32 | > 128 | > 32 | > 128 | MIC (S. epidermidis CIP 81.55): > 32 µg/mL; MIC [13]: 32 µg/mL (≈ 56.9 µM); MIC [14]: 32 µg/mL (≈ 56.9 µM); MIC [15]: 128 µg/mL (≈ 228 µM); MIC (S. mitis CIP 103335): > 128 µg/mL; MIC (S. pneumoniae ATCC 6303): 128 µg/mL (≈ 228 µM); MIC [16]: 64 µg/mL (≈ 114 µM); MIC (E. faecium CIP 54.32): > 128 µg/mL |
| CC(C)(C)OC(=O)NCC(NC(=O)c1c[nH]c2cc(Cl)ccc12)c1c[nH]c2ccc(Cl)cc12 (centres unmarked) [Compound 6b, tert-Butyl 2-(5-chloro-1H-indol-3-yl)-2-(6-chloro-1H-indole-3-carboxamido)ethyl carbamate] | 4 (≈ 8.21 µM) | 4 (≈ 8.21 µM) | 4 (≈ 8.21 µM) | 4 (≈ 8.21 µM) | 4 (≈ 8.21 µM) | 4 (≈ 8.21 µM) | 4 (≈ 8.21 µM) | 4 (≈ 8.21 µM) | 4 (≈ 8.21 µM) | > 128 | 64 (≈ 131 µM) | > 128 | > 128 | > 128 | > 128 | > 128 | > 128 | 64 (≈ 131 µM) | > 128 | > 128 | MIC (S. aureus SA-1199B): 4 µg/mL (≈ 8.21 µM); inhibition at 10 µM [17]: 92 ± 4%; inhibition at 1 µM [17]: 2%; inhibition at 10 µM [18]: 99 ± 1%; inhibition at 1 µM [18]: 0%; inhibition at 10 µM [19]: 97 ± 6%; inhibition at 1 µM [19]: 0%; MIC (S. epidermidis CIP 81.55): 4 µg/mL (≈ 8.21 µM); MIC [13]: 8 µg/mL (≈ 16.4 µM); MIC [14]: 4 µg/mL (≈ 8.21 µM); MIC [15]: 128 µg/mL (≈ 263 µM); MIC (S. mitis CIP 103335): 128 µg/mL (≈ 263 µM); MIC (S. pneumoniae ATCC 6303): 64 µg/mL (≈ 131 µM); MIC [16]: 128 µg/mL (≈ 263 µM); MIC (E. faecium CIP 54.32): > 128 µg/mL |
| CC(C)(C)OC(=O)NCC(NC(=O)c1c[nH]c2ccccc12)c1c[nH]c2cc(Br)ccc12 (centres unmarked) [Compound 3d, tert-Butyl (2-(6-bromo-1H-indol-3-yl)-2-(1H-indolyl-3-carboxamido)ethyl)carbamate] | 8 (≈ 16.1 µM) | 8 (≈ 16.1 µM) | 8 (≈ 16.1 µM) | 8 (≈ 16.1 µM) | 8 (≈ 16.1 µM) | 8 (≈ 16.1 µM) | 8 (≈ 16.1 µM) | 8 (≈ 16.1 µM) | 8 (≈ 16.1 µM) | 32 (≈ 64.3 µM) | 64 (≈ 129 µM) | > 128 | > 128 | > 128 | 64 (≈ 129 µM) | > 128 | > 128 | 64 (≈ 129 µM) | > 128 | > 128 | MIC (S. aureus SA-1199B): 8 µg/mL (≈ 16.1 µM); inhibition at 10 µM [17]: 67 ± 3%; inhibition at 1 µM [17]: 0%; inhibition at 10 µM [18]: 73 ± 6%; inhibition at 1 µM [18]: 0%; inhibition at 10 µM [19]: 73 ± 3%; inhibition at 1 µM [19]: 9%; MIC (S. epidermidis CIP 81.55): 16 µg/mL (≈ 32.2 µM); MIC [13]: 16 µg/mL (≈ 32.2 µM); MIC [14]: 16 µg/mL (≈ 32.2 µM); MIC [15]: 64 µg/mL (≈ 129 µM); MIC (S. mitis CIP 103335): 64 µg/mL (≈ 129 µM); MIC (S. pneumoniae ATCC 6303): 64 µg/mL (≈ 129 µM); MIC [16]: 64 µg/mL (≈ 129 µM); MIC (E. faecium CIP 54.32): 64 µg/mL (≈ 129 µM) |
